Test results reported in PMC8179156, “Retrograde sulfur flow from glucosinolates to cysteine in Arabidopsis thaliana” (Proceedings of the National Academy of Sciences of the …, 2021).

How the values were obtained:
Type in all cases: biochemical
AtBGLU28-His6 = target: T1, AtBGLU28-His6 (Arabidopsis thaliana, UniProt Q4V3B3); experiment: D-glucose release, extract of expressing N. benthamiana leaves; conditions: crude extract; His6-GFP control at background
T1 construct: gene BGLU28; C-terminal His6 tag; transient expression in Nicotiana benthamiana leaves; crude protein extract
T1 sequence (Q4V3B3 22-582): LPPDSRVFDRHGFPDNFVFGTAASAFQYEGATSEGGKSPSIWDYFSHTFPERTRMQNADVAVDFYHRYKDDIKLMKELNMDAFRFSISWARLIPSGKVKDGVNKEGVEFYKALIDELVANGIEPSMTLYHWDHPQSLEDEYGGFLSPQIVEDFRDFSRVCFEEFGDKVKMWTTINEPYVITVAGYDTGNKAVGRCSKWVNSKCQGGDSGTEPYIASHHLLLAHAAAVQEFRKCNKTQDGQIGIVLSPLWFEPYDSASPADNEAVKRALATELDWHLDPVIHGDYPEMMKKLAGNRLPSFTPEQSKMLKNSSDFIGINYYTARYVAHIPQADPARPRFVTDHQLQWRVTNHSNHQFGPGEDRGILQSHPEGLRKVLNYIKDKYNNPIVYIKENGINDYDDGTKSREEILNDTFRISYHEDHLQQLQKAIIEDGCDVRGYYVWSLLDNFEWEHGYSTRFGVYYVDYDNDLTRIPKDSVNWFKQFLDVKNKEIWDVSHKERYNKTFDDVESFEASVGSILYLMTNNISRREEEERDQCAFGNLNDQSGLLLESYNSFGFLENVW

AtTGG1-His6 = target: T2, AtTGG1-His6 (Arabidopsis thaliana, UniProt P37702); experiment: as above; conditions: crude extract; His6-GFP control at background
T2 construct: gene TGG1; His6 tag (printed AtTGG1-His6); transient expression in Nicotiana benthamiana leaves; crude protein extract
T2 sequence (P37702 20-541): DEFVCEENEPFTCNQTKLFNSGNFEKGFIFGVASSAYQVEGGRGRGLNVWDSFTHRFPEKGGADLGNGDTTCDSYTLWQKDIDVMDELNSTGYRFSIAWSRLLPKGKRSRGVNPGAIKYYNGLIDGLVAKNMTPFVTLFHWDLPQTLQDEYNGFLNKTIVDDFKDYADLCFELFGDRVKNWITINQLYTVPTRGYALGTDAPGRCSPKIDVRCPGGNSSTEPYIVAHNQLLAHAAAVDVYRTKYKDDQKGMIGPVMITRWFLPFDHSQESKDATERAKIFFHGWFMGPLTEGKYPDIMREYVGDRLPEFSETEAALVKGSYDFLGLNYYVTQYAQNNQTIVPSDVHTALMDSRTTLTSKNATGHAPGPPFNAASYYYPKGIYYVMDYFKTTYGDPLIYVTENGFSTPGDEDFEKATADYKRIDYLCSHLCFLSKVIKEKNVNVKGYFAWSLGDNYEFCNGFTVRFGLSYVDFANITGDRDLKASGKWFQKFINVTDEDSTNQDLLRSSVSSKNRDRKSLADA

AtOXP1 [1] = target: T3, AtOXP1 (Arabidopsis thaliana, UniProt Q9FIZ7); experiment: Glu production in crude seedling extract, WT versus oxp1-1; conditions: native crude extract; stereochemistry of 5OP not given
T3 construct: gene OXP1; native enzyme in crude protein extract of 14-d-old seedlings; assigned by comparison with oxp1-1 mutant
T3 sequence (Q9FIZ7 1-1266): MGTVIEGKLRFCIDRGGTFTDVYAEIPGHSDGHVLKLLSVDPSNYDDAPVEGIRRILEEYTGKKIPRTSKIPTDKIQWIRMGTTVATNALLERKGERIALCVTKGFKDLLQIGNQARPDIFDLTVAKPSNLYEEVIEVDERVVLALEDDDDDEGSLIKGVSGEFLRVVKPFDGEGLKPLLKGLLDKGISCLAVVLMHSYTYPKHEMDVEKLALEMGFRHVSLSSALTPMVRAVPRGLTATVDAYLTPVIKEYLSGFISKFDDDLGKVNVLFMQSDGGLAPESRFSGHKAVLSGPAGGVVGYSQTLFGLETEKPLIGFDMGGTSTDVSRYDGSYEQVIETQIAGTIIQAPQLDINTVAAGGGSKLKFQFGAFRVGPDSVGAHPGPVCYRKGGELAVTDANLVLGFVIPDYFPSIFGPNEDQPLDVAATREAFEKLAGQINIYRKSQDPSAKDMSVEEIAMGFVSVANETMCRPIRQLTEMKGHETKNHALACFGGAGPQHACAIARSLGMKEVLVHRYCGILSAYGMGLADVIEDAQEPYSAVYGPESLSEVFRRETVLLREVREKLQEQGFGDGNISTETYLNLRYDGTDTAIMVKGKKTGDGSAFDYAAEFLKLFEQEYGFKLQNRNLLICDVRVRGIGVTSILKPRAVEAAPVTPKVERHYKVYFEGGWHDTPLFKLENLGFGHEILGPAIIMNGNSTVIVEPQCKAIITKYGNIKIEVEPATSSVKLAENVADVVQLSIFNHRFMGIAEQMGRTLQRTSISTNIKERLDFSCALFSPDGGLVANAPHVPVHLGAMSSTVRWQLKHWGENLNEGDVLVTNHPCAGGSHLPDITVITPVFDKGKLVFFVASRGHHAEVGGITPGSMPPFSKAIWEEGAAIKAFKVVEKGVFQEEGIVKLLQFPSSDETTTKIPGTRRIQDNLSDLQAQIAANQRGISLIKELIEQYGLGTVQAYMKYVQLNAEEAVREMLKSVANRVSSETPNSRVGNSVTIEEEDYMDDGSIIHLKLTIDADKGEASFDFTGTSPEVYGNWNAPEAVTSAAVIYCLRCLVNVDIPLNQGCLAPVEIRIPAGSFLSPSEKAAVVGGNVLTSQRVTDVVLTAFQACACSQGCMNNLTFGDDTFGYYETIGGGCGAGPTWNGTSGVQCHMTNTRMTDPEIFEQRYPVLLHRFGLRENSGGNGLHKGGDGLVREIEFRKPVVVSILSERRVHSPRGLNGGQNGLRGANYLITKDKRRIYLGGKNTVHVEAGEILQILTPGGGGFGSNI

AtOXP1 [2] = target: T3, AtOXP1; experiment: Cys production in crude seedling extract, WT versus oxp1-1; conditions: native crude extract; stereochemistry of pCys not given

CSCCCC/C(=N/OS(=O)(=O)O)S[C@@H]1O[C@H](CO)[C@@H](O)[C@H](O)[C@H]1O [4MTB, 4-Methylthio-n-butyl glucosinolate]
D-glucose release, extract of expressing N. benthamiana leaves (AtBGLU28-His6): exhibited higher rates of hydrolysis against 4MTB, benzyl glucosinolate, and PhE
D-glucose release, extract of expressing N. benthamiana leaves (AtTGG1-His6): the extract containing AtTGG1-His6 hydrolyzed all the tested GLs at similar rates

O=C1CC[C@@H](C(=O)O)N1 [5OP, 5-oxoproline]
Glu production in crude seedling extract, WT versus oxp1-1 (AtOXP1 [1]): lower rate of Cys production than the WT as observed for the Glu production from 5OP

O=S(=O)(O)O/N=C(/CCc1ccccc1)S[C@@H]1O[C@H](CO)[C@@H](O)[C@H](O)[C@H]1O [PhE, 2-Phenylethyl glucosinolate]
D-glucose release, extract of expressing N. benthamiana leaves (AtBGLU28-His6): exhibited higher rates of hydrolysis against 4MTB, benzyl glucosinolate, and PhE
D-glucose release, extract of expressing N. benthamiana leaves (AtTGG1-His6): the extract containing AtTGG1-His6 hydrolyzed all the tested GLs at similar rates

O=C1N[C@H](C(=O)O)CS1 [pCys, 1,3-thiazolidin-2-one-4-carboxylic acid]
Cys production in crude seedling extract, WT versus oxp1-1 (AtOXP1 [2]): supporting that AtOXP1 can hydrolyze pCys, as reported for OPases in other organisms
